From PubChem BioAssay (NCI)
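The compound was tested at five concentrations on cells cultured in 96-well plates, with a 48-hour exposure period. At the TGI there is no net growth.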

Experiments:
Assay in all cases: DTP human tumour cell line panel, 48 h
UO-31 renal = system: UO-31 renal
ACHN renal = system: ACHN renal
MDA-MB-231 breast = system: MDA-MB-231 breast
MDA-N = system: MDA-N
SK-MEL-28 melanoma = system: SK-MEL-28 melanoma
NCI-H460 lung = system: NCI-H460 lung
HCT-116 colon = system: HCT-116 colon
SF-539 CNS = system: SF-539 CNS
SK-MEL-5 melanoma = system: SK-MEL-5 melanoma
DU-145 prostate = system: DU-145 prostate
LXFL 529 NSCLC = system: LXFL 529 NSCLC
MDA-MB-435 = system: MDA-MB-435
HCT-15 colon = system: HCT-15 colon
OVCAR-8 ovarian = system: OVCAR-8 ovarian
SF-295 CNS = system: SF-295 CNS
XF 498 CNS = system: XF 498 CNS
A498 renal = system: A498 renal
DMS 273 small cell lung = system: DMS 273 small cell lung
M19-MEL melanoma = system: M19-MEL melanoma
OVCAR-5 ovarian = system: OVCAR-5 ovarian
SR leukemia = system: SR leukemia
UACC-62 melanoma = system: UACC-62 melanoma
DLD-1 colon = system: DLD-1 colon
NCI/ADR-RES ovarian = system: NCI/ADR-RES ovarian
A549 NSCLC = system: A549 NSCLC
OVCAR-4 ovarian = system: OVCAR-4 ovarian
SN12C renal = system: SN12C renal
OVCAR-3 ovarian = system: OVCAR-3 ovarian
CCRF-CEM leukemia = system: CCRF-CEM leukemia
HOP-62 NSCLC = system: HOP-62 NSCLC
T-47D breast = system: T-47D breast
SNB-78 CNS = system: SNB-78 CNS
HT29 colon = system: HT29 colon
HOP-92 NSCLC = system: HOP-92 NSCLC
NCI-H226 lung = system: NCI-H226 lung
NCI-H23 lung = system: NCI-H23 lung
EKVX NSCLC = system: EKVX NSCLC
U251 CNS = system: U251 CNS
SNB-19 CNS = system: SNB-19 CNS
SW-620 colon = system: SW-620 colon
RXF-631 renal = system: RXF-631 renal
SK-MEL-2 melanoma = system: SK-MEL-2 melanoma
SK-OV-3 ovarian = system: SK-OV-3 ovarian
SF-268 CNS = system: SF-268 CNS
KM12 colon = system: KM12 colon
HS 578T breast = system: HS 578T breast
RPMI-8226 leukemia = system: RPMI-8226 leukemia
TK-10 renal = system: TK-10 renal
PC-3 prostate = system: PC-3 prostate
HCC-2998 colon = system: HCC-2998 colon
HL-60(TB) leukemia = system: HL-60(TB) leukemia
CAKI-1 renal = system: CAKI-1 renal
NCI-H522 lung = system: NCI-H522 lung
BT-549 breast = system: BT-549 breast
DMS 114 small cell lung = system: DMS 114 small cell lung
786-0 renal = system: 786-0 renal
IGROV1 ovarian = system: IGROV1 ovarian
MOLT-4 leukemia = system: MOLT-4 leukemia
KM20L2 colon = system: KM20L2 colon
SNB-75 CNS = system: SNB-75 CNS
MCF7 breast = system: MCF7 breast
K-562 leukemia = system: K-562 leukemia
LOX IMVI melanoma = system: LOX IMVI melanoma
COLO 205 colon = system: COLO 205 colon
UACC-257 melanoma = system: UACC-257 melanoma
MALME-3M melanoma = system: MALME-3M melanoma
M14 melanoma = system: M14 melanoma
RXF 393 renal = system: RXF 393 renal

Measured: TGI

O=[As]O
> 52.8 µM: U251 CNS
18.5 µM: HL-60(TB) leukemia
> 60.5 µM: NCI-H522 lung
> 100 µM: UO-31 renal | ACHN renal | MDA-MB-231 breast | MDA-N | SK-MEL-28 melanoma | NCI-H460 lung | HCT-116 colon | DU-145 prostate | LXFL 529 NSCLC | MDA-MB-435 | HCT-15 colon | SF-295 CNS | A498 renal | DMS 273 small cell lung | OVCAR-5 ovarian | DLD-1 colon | NCI/ADR-RES ovarian | A549 NSCLC | OVCAR-4 ovarian | HOP-62 NSCLC | T-47D breast | SNB-78 CNS | HT29 colon | NCI-H226 lung | NCI-H23 lung | EKVX NSCLC | SNB-19 CNS | SW-620 colon | SK-MEL-2 melanoma | SK-OV-3 ovarian | KM12 colon | HS 578T breast | RPMI-8226 leukemia | TK-10 renal | PC-3 prostate | HCC-2998 colon | CAKI-1 renal | BT-549 breast | 786-0 renal | MOLT-4 leukemia | KM20L2 colon | MCF7 breast | COLO 205 colon
> 89.5 µM: K-562 leukemia
> 91.5 µM: HOP-92 NSCLC
> 70.1 µM: OVCAR-8 ovarian
> 54.3 µM: SF-539 CNS
96.9 µM: LOX IMVI melanoma
> 93.5 µM: RXF 393 renal
> 61.8 µM: SK-MEL-5 melanoma
> 74.1 µM: OVCAR-3 ovarian
63.6 µM: M19-MEL melanoma
> 93.3 µM: UACC-257 melanoma
> 74.4 µM: SF-268 CNS
> 95.1 µM: SN12C renal
> 66.8 µM: CCRF-CEM leukemia
> 71.5 µM: SR leukemia
40.3 µM: DMS 114 small cell lung
36.8 µM: XF 498 CNS
> 59.3 µM: UACC-62 melanoma
> 60.4 µM: IGROV1 ovarian
> 59.9 µM: MALME-3M melanoma
22.5 µM: RXF-631 renal
> 96.1 µM: M14 melanoma
97.2 µM: SNB-75 CNS

Cc1cc2c(c3c1c1ccccc1n3C)C(=O)c1ccccc1C2=O
> 100 µM: UO-31 renal | ACHN renal | SK-MEL-28 melanoma | NCI-H460 lung | HCT-116 colon | SF-539 CNS | SK-MEL-5 melanoma | LXFL 529 NSCLC | HCT-15 colon | OVCAR-8 ovarian | SF-295 CNS | XF 498 CNS | DMS 273 small cell lung | M19-MEL melanoma | OVCAR-5 ovarian | UACC-62 melanoma | DLD-1 colon | A549 NSCLC | OVCAR-4 ovarian | SN12C renal | OVCAR-3 ovarian | CCRF-CEM leukemia | HOP-62 NSCLC | SNB-78 CNS | HT29 colon | HOP-92 NSCLC | NCI-H23 lung | EKVX NSCLC | U251 CNS | SNB-19 CNS | SW-620 colon | RXF-631 renal | SK-MEL-2 melanoma | SF-268 CNS | KM12 colon | RPMI-8226 leukemia | TK-10 renal | HCC-2998 colon | HL-60(TB) leukemia | NCI-H522 lung | DMS 114 small cell lung | 786-0 renal | IGROV1 ovarian | MOLT-4 leukemia | KM20L2 colon | SNB-75 CNS | K-562 leukemia | LOX IMVI melanoma | COLO 205 colon | UACC-257 melanoma | MALME-3M melanoma | M14 melanoma | RXF 393 renal
